5 compounds from patent US9458162B2, “Cyclic molecules as bruton's tyrosine kinase inhibitors” (Nanjing Allgen Pharma Co. Ltd., priority 2012, dated 2016) can be followed below.

The target of this test is T1, Human BTK enzyme (Homo sapiens, UniProt Q06187).
T1 construct: Reaction Biology Corporation
The test is described as follows: BTK inhibitory activity assay at Reaction Biology Corporation, peptide substrate. The conditions noted are these: peptide substrate 20 μM, ATP 10 μM; for inhibition at 0.005 µM: read-out: Inhibition of ALK, IC50 (Inhibitory Activities of examples at 5 nM). It counts as biochemical.

T1 sequence (Q06187 whole entry): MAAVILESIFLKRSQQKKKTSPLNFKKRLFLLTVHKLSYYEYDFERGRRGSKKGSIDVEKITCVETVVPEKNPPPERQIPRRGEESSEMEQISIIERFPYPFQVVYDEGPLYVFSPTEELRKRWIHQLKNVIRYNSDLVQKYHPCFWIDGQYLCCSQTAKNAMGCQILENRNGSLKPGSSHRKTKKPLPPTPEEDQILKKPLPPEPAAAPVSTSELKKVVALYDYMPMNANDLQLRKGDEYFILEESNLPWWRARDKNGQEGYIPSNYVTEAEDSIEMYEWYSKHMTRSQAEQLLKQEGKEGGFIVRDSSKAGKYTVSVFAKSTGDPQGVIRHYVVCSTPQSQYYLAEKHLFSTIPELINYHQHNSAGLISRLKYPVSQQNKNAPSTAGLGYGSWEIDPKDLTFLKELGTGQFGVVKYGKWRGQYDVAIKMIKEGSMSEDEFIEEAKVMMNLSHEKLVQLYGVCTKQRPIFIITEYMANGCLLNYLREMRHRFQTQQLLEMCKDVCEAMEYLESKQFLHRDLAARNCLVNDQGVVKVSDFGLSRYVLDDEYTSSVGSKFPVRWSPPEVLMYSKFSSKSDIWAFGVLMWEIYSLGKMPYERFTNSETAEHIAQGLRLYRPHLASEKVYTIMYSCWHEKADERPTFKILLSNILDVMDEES

Turning to `C=CC(=O)N1CCCC2(CC(n3nc(-c4ccc(Oc5ccccc5)cc4)c4c(N)ncnc43)C2)C1` (stereo not drawn) [Example 4A, 1-(2-(4-amino-3-(4-phenoxyphenyl)-1H-pyrazolo[3,4-d]pyrimidin-1-yl)-6-azaspiro[3.5]nonan-6-yl)prop-2-en-1-one], the inhibition at 0.005 µM (compound at 5 nM) amounted to 85.7%.

Consider `C=CC(=O)N1CCC2(CC1)CC(n1nc(-c3ccc(Oc4ccccc4)cc3)c3c(N)ncnc31)C2` [Example 2, 1-(2-(4-amino-3-(4-phenoxyphenyl)-1H-pyrazolo[3,4-d]pyrimidin-1-yl)-7-azaspiro[3.5]nonan-7-yl)prop-2-en-1-one], for which, where the note is “compound at 5 nM”, the inhibition at 0.005 µM stood at 80.1%.

Turning to `C=CC(=O)N1CCCC2(CC(n3nc(-c4ccc(Oc5ccccc5)cc4)c4c(N)ncnc43)C2)C1` (stereo not drawn) [Example 4B, 1-(2-(4-amino-3-(4-phenoxyphenyl)-1H-pyrazolo[3,4-d]pyrimidin-1-yl)-6-azaspiro[3.5]nonan-6-yl)prop-2-en-1-one], the “percent inhibition of BTK at 5 nM” value (compound at 5 nM) came out at 97.9%.

The compound `C=CC(=O)N1CC2(CC(n3nc(-c4ccc(Oc5ccccc5)cc4)c4c(N)ncnc43)C2)C1` [Example 1, 1-(6-(4-Amino-3-(4-phenoxyphenyl)-1H-pyrazolo[3,4-d]pyrimidin-1-yl)-2-azaspiro[3.3]heptan-2-yl)prop-2-en-1-one] displayed a half-maximal inhibitory concentration (IC50) of 1.48 nM. Moreover, where the note is “compound at 5 nM”, the inhibition at 0.005 µM was 98.5%.

As to `C=CC(=O)N1CC2(CCC(n3nc(-c4ccc(Oc5ccccc5)cc4)c4c(N)ncnc43)CC2)C1` [Example 3, 1-(7-(4-amino-3-(4-phenoxyphenyl)-1H-pyrazolo[3,4-d]pyrimidin-1-yl)-2-azaspiro[3.5]nonan-2-yl)prop-2-en-1-one], the inhibition at 0.005 µM (compound at 5 nM) stood at 96.4%.

As a reminder, the inhibition is how much of the control response was suppressed. What is called IC50 is the concentration that inhibits the measured activity by half.
